Measurements as given in the NIST ThermoML archive (doi:10.1016/j.jct.2014.01.007).
± gives the expanded uncertainty stated by the source.

Columns and labels:
[1] = for mass density: 101.33 kPa; for Triple point temperature: DTA
[2] = molar enthalpy of vaporization or sublimation; conditions: 298.15 K; Liquid; Static calorimetry
[3] = Molar enthalpy of transition or fusion; conditions: DSC

Row | SMILES | mass density ([1]; 288.15 K, Liquid, Vibrating tube method) [kg/m3] | mass density ([1]; 293.15 K, Liquid, Vibrating tube method) [kg/m3] | mass density ([1]; 298.14 K, Liquid, Vibrating tube method) [kg/m3] | mass density ([1]; 303.15 K, Liquid, Vibrating tube method) [kg/m3] | mass density ([1]; 308.15 K, Liquid, Vibrating tube method) [kg/m3] | molar enthalpy [2] [kcal/mol] | mass density ([1]; 167 K, Crystal 2, X-ray diffraction) [kg/m3] | mass density ([1]; 251 K, Crystal 1, X-ray diffraction) [kg/m3] | Triple point temperature ([1]; Crystal 1) [K] | Triple point temperature ([1]; Crystal 2) [K] | Molar enthalpy of transition or fusion ([3]; Crystal 1) [kcal/mol] | Molar enthalpy of transition or fusion ([3]; Crystal 2) [kcal/mol]
1 | CN(C)C(=N)N(C)C [1,1,3,3-tetramethylguanidine] | 921.517 ± 0.12 | 917.012 ± 0.12 | 912.5 ± 0.12 | 907.982 ± 0.12 | 903.458 ± 0.12 | 11.9 ± 0.359 |  |  |  |  |  | 
2 | CN(C)C(N)=[N+](C)C.O=[N+]([O-])[O-] [tetramethylguanidinium nitrate] |  |  |  |  |  |  | 1295 ± 7 | 1284 ± 7 | 365.9 ± 0.5 | 221.4 ± 1.7 | 4.74 ± 0.122 | 0.159 ± 0.0335
